In patent US20250134844A1, “THERAPEUTIC USE OF PLEUROMUTILINS” (Nabriva Therapeutics GmbH, priority 2022, published 2025):
Values after ≈ are worked out from the molar mass of the structure shown. Like-named read-outs stand apart in the source and are kept apart here. Each block holds one molecule with its values, some of them ahead of it.

How the values were obtained:
Borreliella spp. = assay: MIC by broth microdilution against Borreliella isolates; assay type: cell-based; details: range over 6 isolates (5 B. burgdorferi, 1 B. garinii)
Protocol: Minimal inhibitory concentrations (MIC) were determined against five (n=5) Borreliella burgdorferi isolates (ATCC 51990, 55131, 35211, 35210, 53899) and one (n=1) Borreliella garinii isolate (ATCC 51991) by broth microdilution technique (Dever, L. L., Jorgensen, J. H., Barbour, A. G. In vitro antimicrobial susceptibility testing of Boreliella burgdorferi: a microdilution MIC method and time-kill studies. J Clin Microbiol. 30(10), 2692-2697. (1992) doi: 10.1128/jcm.30.10.2692-2697.1992; Feng, J., Wang, T., Shi, W., et al. Identification of novel activity against Boreliella burgdorferi persisters using an FDA approved drug library. Emerg Microb Infect 3, e49 (2014) doi: 10.1038/emi.2014.53). The general procedures for broth microdilution were done according to the CLSI guidelines M7 and M100-S31 (CLSI. (2018) Methods for dilution antimicrobial susceptibility tests for bacteria that grow aerobically; Eleventh edition. M07.; CLSI. (2021) Performance Standards for Antimicrobial Susceptibility Testing; Thirty-first Edition. M100-S31).
Briefly, Borreliella spp. were grown at 36° C. under microaerophilic conditions in BSK II medium until the logarithmic or stationary growth phase was reached. The growth phase was determined by semiquantitative measurement of active and dormant cells by fluorescence microscopy of cells stained with the fluorescent dyes SYBR Green I and propidium iodide. An inoculum of 10^5−10^6 spirochetes/mL was used to inoculate broth microdilution plates containing serially 2-fold diluted test compounds.

[1] = test system: T. pallidum Chicago strain; assay: In vitro susceptibility in co-culture with rabbit Sf1Ep cells, qPCR of tp0574 gene; assay type: cell-based, Treponema pallidum
Protocol: (§1) The in vitro susceptibility determination essentially followed the protocol described by Edmondson et al. (Edmondson, D. G., Hu, B., Norris, S. J. Long-Term In Vitro Culture of the Syphilis Spirochete Treponema pallidum subsp. pallidum. mBio 9(3) e01153-18. (2018). doi: 10.1128/mBio.01153-18).
(§2) Briefly, 3×10^3 rabbit Sf1Ep cells seeded in 96-well microtiter plates in 150 μl of culture media, were inoculated with the T. pallidum strains Chicago and SS14 at an inoculum of 3×10^3 (counted using dark field microscopy) in TpCM-2 medium that was equilibrated overnight at 34° C. in a microaerophilic environment consisting of 1.5% O2, 3.5% CO2 and 95% N2 supplied as a tri-gas mix. Lefamulin and penicillin G were added from 100-fold concentrated stocks in water to achieve the final test concentrations of 5, 2.5, 0.5, 0.1, 0.02. 0.01. 0.005, and 0.0025 μg/ml for Lefamulin and 60 ng/ml for penicillin G. Then the culture plates were incubated at 34° C. in a tri-gas incubator. Cells were then lysed and the DNA extracted using a Quick DNA-96 kit followed by the quantification of the treponemes by quantitative real-time PCR in triplicate targeting the tp0574 gene (Giacani L, Molini B, Godornes C, Barrett L, Van Voorhis WC, Centurion-Lara A, et al. Quantitative analysis of tpr gene expression in Treponema pallidum isolates: differences among isolates and correlation with T-cell responsiveness in experimental syphilis. Infect Immun. 75(1), 104-12 (2007). doi: 10.1128/IAI.01124-06).

T. pallidum SS14 strain = assay: as above; assay type: cell-based, Treponema pallidum
Protocol: as §1, §2

[2] = test system: T. pallidum cells (Chicago strain); assay: Rabbit model of intradermal Treponema pallidum infection (syphilis); assay type: in vivo
Protocol: The preclinical study to test Lefamulin against T. pallidum was conducted in analogy to an investigation of the antibiotic compound linezolid (Haynes, A. M., Giacani, L., Vall Mayans, M., et al. Efficacy of linezolid on Treponema pallidum, the syphilis agent: A preclinical study. eBioMedicine 65, 103281 (2021). doi: 10.1016/j.ebiom.2021.103281).
In the syphilis infection model, each animal was infected intradermally (ID) with 10^6 freshly harvested, viable and infectious T. pallidum cells (Chicago strain) per site of infection on 10 sites on their shaved backs to induce appearance of primary syphilis lesions. Treponemal viability prior to ID infection was assessed by dark field microscopy (DFM). A dose of infectious treponemes (10^6/site of infection) induces the appearance of an erythematous lesion at the inoculation site within ˜5 days post-inoculation. Overall, the arch of lesion progression from the erythematous stage to the indurated, ulcerated, and healed stages encompasses approximately 4 weeks.
Herein, three groups of three rabbits were infected. Three animals were treated orally with 70 mg/kg Lefamulin every 12 h for 3 days (day 7 to day 10 post-infection). As positive control group, another three animals were treated with Benzathine penicillin G (BPG) as single intramuscular (IM) injection (300,000 units; equivalent w/w to 4.8 million units for humans). One group (n=3) served as untreated control. The cutaneous lesions were monitored macroscopically for clinical development, documented by photography on regular basis and measured for their diameter every day for a period of 40 days.
Treponemal burden within these lesions was assessed by taking needle aspirates from the lesions and analyzing the aspirates for pathogen cell count using DFM as well as quantification of treponemal DNA extracted from the aspirates at day 3, 8, 12, and 16 Additionally, mRNA extracted from lesion biopsies obtained post-treatment initiation was also quantified as a surrogate of viability. The gene copy number of the T. pallidum tp0574 gene was quantified by qPCR. Additionally, the tp0574 gene message was normalized to the message of the rabbit housekeeping gene HPRT to evaluate the burden of viable T. pallidum cells within lesion biopsies.

T. pallidum = assay: Rabbit infectivity test (RIT) with popliteal lymph nodes; assay type: in vivo
Source text: The test rabbits from Example 3 were used for a subsequent study in a RIT, wherein samples from the popliteal lymph nodes were transferred to new (naïve) rabbits, which were subsequently analyzed for disease symptoms and tested serologically (Haynes, A. M., Giacani, L., Vall Mayans, M., et al. Efficacy of linezolid on Treponema pallidum, the syphilis agent: A preclinical study. eBioMedicine 65, 103281 (2021). Doi: 10.1016/j.ebiom.2021.103281).
Following euthanasia, popliteal lymph nodes (LN) from all the rabbits in the Lefamulin, BPG, and control groups were harvested. Lymph nodes from each rabbit were pooled and homogenized in a solution containing equal amounts of sterile saline and serum from an uninfected rabbit. One milliliter of homogenate from each test rabbit was then inoculated into the left testicle of a naïve rabbit to perform the RIT. For the rabbit, which died at day 3 post-treatment initiation, lymph nodes were harvested and transferred to a RIT rabbit within 1 hour after the animal's death.
Inoculated animals were checked for orchitis twice weekly. Serum was collected monthly for three months and analyzed with two different serological tests, i.e. VDRL (Venereal Disease Research Laboratory; Becton-Dickinson, Franklin Lanes, NJ) and TPPA (Treponema pallidum Particle Agglutination; Fujirebio, Malvern, PA). Also an FTA-ABS test (Fluorescent Treponemal Antibody-Absorption; Trinity Biotech, Jamestown, NY) was performed.

[3] = 192 h, stationary growth phase cultures, read after 8 days, read-out: MIC (μg/mL) for Stationary Growth Phase Culture (n = 6)
[4] = logarithmic growth phase cultures, read after 5 or 6 days, read-out: MIC (μg/mL) for Logarithmic Growth Phase Culture (n = 6)

SMILES: CC[C@H]1OC(=O)[C@H](C)[C@@H](O[C@H]2C[C@@](C)(OC)[C@@H](O)[C@H](C)O2)[C@H](C)[C@@H](O[C@@H]2O[C@H](C)C[C@H](N(C)C)[C@H]2O)[C@](C)(O)C[C@@H](C)C(=O)[C@H](C)[C@@H](O)[C@]1(C)O [Erythromycin]
MIC (Borreliella spp.; [3]): 0.001 to 0.004 µg/mL (≈ 0.00136 to 0.00545 µM) | MIC (Borreliella spp.; [4]): 0.002 to 0.016 µg/mL (≈ 0.00273 to 0.0218 µM)

SMILES: C=C[C@]1(C)C[C@@H](OC(=O)CS[C@@H]2CC[C@@H](N)C[C@H]2O)[C@]2(C)[C@H](C)CC[C@]3(CCC(=O)[C@H]32)[C@@H](C)[C@@H]1O [Lefamulin, 14-O-{[(1R, 2R, 4R)-4-amino-2-hydroxy-cyclohexylsulfanyl]-acetyl}-mutilin]
MIC (Borreliella spp.; [3]): 0.001 to 0.008 µg/mL (≈ 0.00197 to 0.0158 µM) | MIC (Borreliella spp.; [4]): 0.001 to 0.008 µg/mL (≈ 0.00197 to 0.0158 µM) | mean copy number of tp0574 gene ([1]; Chicago strain, at ≥10 ng/ml Lefamulin, day 7, untreated control 13,052 copies/μL): 324-403 copies/μL | MIC ([1]; Treponema pallidum, 168 h, T. pallidum Chicago strain, day 7, read-out: minimal inhibitory concentration (MIC)): ≥ 0.01 µg/mL | mean copy number of tp0574 gene (T. pallidum SS14 strain; SS14 strain, at ≥10 ng/mL Lefamulin, day 7, untreated control 894 copies/μL): 33-124 copies/μL | inhibiting Lefamulin concentration (T. pallidum SS14 strain; T. pallidum SS14 strain, inhibited at 10-20 ng/mL or higher): 10 to 20 ng/mL | death in treated group ([2]; 70 mg/kg orally every 12 h, day 3 of treatment, most likely inhalation of Lefamulin caused by reflux): one rabbit died | lesion progression past the initial state of mild induration ([2]; 40 days observation): None of the lesions in these two groups progressed past the initial state of mild induration | T. pallidum mRNA (tp0574 message normalized to HPRT) in lesion biopsies ([2]; day 3 post-treatment initiation): absent | lesions still measurable ([2]; day 9 post-treatment initiation): 14% | lesion diameter compared to the untreated controls ([2]; day 10 post-infection, end of treatment, p<0.05): significantly lower | day post-treatment initiation by which no induration could be measured at any site ([2]; post-treatment initiation): ≤ 13 days | T. pallidum cells in lesion aspirates by DFM ([2]; since day 3 post-treatment initiation): no treponemal bacteria could be found | orchitis or seroconversion (VDRL, TPPA) of RIT rabbits (T. pallidum; 3-months observation period, lymph nodes from treated test rabbits): None of the animals developed orchitis or seroconverted | seroconversion in FTA-ABS test (T. pallidum; RIT rabbits, control animals 3+ reactivity or higher): none of the BGP or Lefamulin treated animals seroconverted

SMILES: CC1(C)S[C@@H]2[C@H](NC(=O)Cc3ccccc3)C(=O)N2[C@H]1C(=O)O [penicillin G]
copy number of tp0574 gene ([1]; Chicago strain, penicillin G 60 ng/mL): 247 copies/μL | copy number of tp0574 gene (T. pallidum SS14 strain; SS14 strain, penicillin G 60 ng/mL): 91 copies/μL

More lines, now with the values ahead:

MIC (Borreliella spp.; [3]): 2 to 8 µg/mL (≈ 5.53 to 22.1 µM) | MIC (Borreliella spp.; [4]): 2 to 4 µg/mL (≈ 5.53 to 11.1 µM)
SMILES: C[C@H]1COc2c(N3CCN(C)CC3)c(F)cc3c(=O)c(C(=O)O)cn1c23 [Levofloxacin]

MIC (Borreliella spp.; [3]): 0.12 to 2 µg/mL (≈ 0.317 to 5.28 µM) | MIC (Borreliella spp.; [4]): 0.12 to 1 µg/mL (≈ 0.317 to 2.64 µM)
SMILES: C=C[C@]1(C)C[C@@H](OC(=O)CO)[C@]2(C)[C@H](C)CC[C@]3(CCC(=O)[C@H]32)[C@@H](C)[C@@H]1O [Pleuromutilin]

MIC (Borreliella spp.; [3]): 0.03 to 0.25 µg/mL (≈ 0.0608 to 0.506 µM) | MIC (Borreliella spp.; [4]): 0.03 to 0.5 µg/mL (≈ 0.0608 to 1.01 µM)
SMILES: C=C[C@]1(C)C[C@@H](OC(=O)CSCCN(CC)CC)[C@]2(C)[C@H](C)CC[C@]3(CCC(=O)[C@H]32)[C@@H](C)[C@@H]1O [Tiamulin]
